# Measurements as given in US20070078085A1, “Methods and compositions for the utilization and targeting of osteomimicry” (priority 2004, published 2007).
# d = 2'-deoxy (DNA)
# Experiments:
# hOC promoter = experiment: hOC promoter-luciferase reporter activity in transfected cells; assay type: cell-based, human; settings: C4-2B cells, 16 h
# Source text: Plasmid Construction. Genomic DNA was used in the PCR of the 0.8-kb hOC promoter inserting KpnI and XhoI sites, subsequently cloned into pGL3-Basic-luciferase reporter vector (Promega, Madison, Wis.) as described before (9). The deletion constructs, ΔA [374 bp upstream of AP1/VDRE (AV) element], ΔTst-1 (POU-factor Tst-1/Oct-6 binding site), ΔCRE (cAMP-responsive element) and ΔIRF-1 (interferon regulatory factor-i binding site) in hOC promoter/pGL3 were generated by recombinant PCR technique. The point mutation plasmids in CRE (from -643 to -636 in hOC promoter, 5′-[…]-3′) were constructed with a QuikChange Site-Directed Mutagenesis Kit (Stratagene). The mutation constructs (see below) are one-point substitution mutants, Mut1 (-642 G→T), Mut2 (-641 A→C), Mut3 (-640 C→A), Mut4 (-639 C→A) and Mut5 (-638 T→G), a two-point substitution mutant, Mut6 (-640 and -639 CC→AA), and a two-point deletion construct, Mut7 (-640 and -639 CC→XX). The 1.5-kb hBSP promoter construct prepared in the pGL3-luciferase reporter vector has been described previously (36). The single deletion constructs ΔCRE1 (-79 to -72) and ΔCRE2 (-674 to -667), and a double deletion construct ΔCRE2/CRE1 in the hBSP promoter/pGL3-luciferase plasmid were generated by recombinant PCR technique. All plasmid constructs were confirmed by DNA sequencing.
# Transfection and Luciferase Activity Assay. Cells were trypsinized and seeded at a density of 1.5×10^5 cells/well (LNCaP, C4-2B, DU145 and ARCaP) and 1.0×10^5 cells/well (PC3 and MG63) in 12-well plates 24 h before transfection. Plasmid DNAs were introduced into cells by complexing with a commercial reagent DOTAP (Roche Molecular Biochemicals) according to the manufacturer's protocol. Each transfection reaction contained 1.25 μg of tested DNA constructs and 0.25 μg of the transfection efficiency control CMV promoter-driven β-galactosidase plasmid DNA. After 6 h transfection, DNA-liposome mixtures were replaced by fresh T-medium or CM. Tansfected cells were harvested and lysed in 1× Reporter Lysis buffer (Promega) after 36 h additional incubation. Cell lysates were vortexed for 15 s and spun for 10 min. For luciferase activity assay, 20 μl of the lysate supernatant was mixed with 100 μl of the luciferase substrate (Promega) and detected by a luminometer (Monolight 3010, luminometer PharMingen, San Diego, Calif.). For β-galactosidase activity assay, 100 μl of the supernatant was mixed with 100 μl of 2×β-galactosidase substrate [200 mM sodium phosphate buffer, pH 7.3, 2 mM MgCl2, 100 mM β-mercaptoethanol and 1.33 mg/ml o-nitrophenyl-β-D-galactopyranoside (ONPG)], and incubated at 37° C. for 30 min. β-galactosidase activity was detected by Microplate spectrophotometer (Molecular Devices Corp., Sunnyvale, Calif.) at 405 nm wavelength. Data were presented as normalized luciferase activity (means±standard deviations), defined as luciferase activity normalized to internal control β-galactosidase activity for transfection efficiency. All studies were performed in three independent experiments with duplicate assays.
# [1] = system: human prostate cancer cell lines; experiment: In vitro cell proliferation assay, prostate cancer cells; assay type: cell-based; settings: for cell proliferation: Neo and b2M-overexpressed C4-2B clones, siRNA
# Protocol: LNCaP, C4-2B, DU145, PC3, MG63 and ARCaP cell lines were seeded in 96-well plates in T-medium containing 5% FBS, respectively. After 24 h incubation, media were replaced by fresh, serum-free T-medium and incubated for an additional 24 h. […] Cell numbers were measured every 24 h using CellTiter 96® AQueous One Solution Cell Proliferation Assay (Promega, Madison, Wis.).
# b2M = b2M expression in C4-2B clones after siRNA; assay type: cell-based, human; settings: Neo and b2M-overexpressed C4-2B clones
# Protocol: Total RNA was isolated from the confluent monolayer of cells using RNAZol B (Teltest Inc., Friendswood, Tex.). The total RNA was used as template for RT according to the manufacturer's instruction (Invitrogen). […] RT-PCR products were analyzed by 1.2% agarose gel electrophoresis.
# (§1) Western blotting was performed using the NOVEX system (Invitrogen). […] Detection of protein bands was performed with ECL Western Boltting Detection Reagents (Amersham Biosciences Corp.).
# The β2M- and control scramble-siRNA sequences were 5′-[…](dT)(dT)-3′ and 5′-[…](dT)(dT)-3′, respectively. For RNA delivery system, we used cationic liposome formulation, termed SN {Zou, 2002#68} to deliver β2M- and scramble-siRNA into cell lines or mice. The ratio of siRNA (μg) to SN (μl) was 1:24. […] To assay of anti-tumor activity of β2M-siRNA therapeutic efficacy, the real-time bioluminescence image by the CCD camera cryogenically cooled IVIS system with analysis software (Xenogen Corp., Alameda Calif.) (Ref) and serum PSA levels were used to monitored PC3-Luc and C4-2 tumor burden in nude mice.
# PC3-Luc tumor = experiment: Subcutaneous bone powder PC3-Luc tumors, intratumoral siRNA-liposome, bioluminescence imaging; assay type: in vivo, athymic nu/nu mice; settings: intratumoral 0.8 μg siRNA three-time per week, four weeks, 28 days
# Source text: (§2) The β2M- and control scramble-siRNA sequences were 5′-[…](dT)(dT)-3′ and 5′-[…](dT)(dT)-3′, respectively. For RNA delivery system, we used cationic liposome formulation, termed SN {Zou, 2002#68} to deliver β2M- and scramble-siRNA into cell lines or mice. The ratio of siRNA (μg) to SN (μl) was 1:24. To test prostate tumor growth inhibition by β2M-siRNA, four weeks old male athymic nu/nu mice were inoculated into the subcutaneous space of the chest regions with 2×10^6 cells of PC3-Luc or C4-2 mixed with 20 mg of bone powder (kindly provided by Dr. A. H. Reddi, University of California, Davis, Sacramento, Calif.) and 35 μl of Matrigel matrix (BD Bioscience, Bedford Mass.), respectively. Three (PC3-Luc) or four (C4-2) weeks later, the tumor-bearing mice were randomly divided into two groups. The mice in the treatment group received intratumoral injection of SN-β2M-siRNA for three-time per week continuously four weeks, at a dose of 0.8 μg of siRNA mixed with 19.2 μl of SN for each mouse. The control group injected with the same dose of SN-scramble-siRNA. To assay of anti-tumor activity of β2M-siRNA therapeutic efficacy, the real-time bioluminescence image by the CCD camera cryogenically cooled IVIS system with analysis software (Xenogen Corp., Alameda Calif.) (Ref) and serum PSA levels were used to monitored PC3-Luc and C4-2 tumor burden in nude mice.
# C4-2-Luc tumor = experiment: Subcutaneous bone powder C4-2-Luc tumors, intratumoral siRNA-liposome, serum PSA; assay type: in vivo, athymic nu/nu mice; settings: intratumoral 0.8 μg siRNA three-time per week, four weeks, 28 days
# Source text: as §2
# AR = experiment: Western blot of AR in siRNA-infected C4-2B cells; assay type: cell-based, human; settings: retrovirally infected C4-2B cells
# Protocol: (§3) FIG. 14. Western blot analysis of parental C4-2B (P), b2M-siRNA (siRNA) and scramble-siRNA (Scramble) retrovirally infected cells. Note AR and PSA expression were abolished by b2M-siRNA in C4-2B cells. EFIa was used as loading control.
# as §1
# PSA = experiment: Western blot of PSA in siRNA-infected C4-2B cells; assay type: cell-based, human; settings: retrovirally infected C4-2B cells
# Protocol: as §3, §1
# OC mRNA = experiment: Semi-quantitative RT-PCR of endogenous OC mRNA; assay type: cell-based, human; settings: FSK 10^−6 M, 12 h
# Protocol: (§4) Reverse Transcription-Polymerase Chain Reaction (RT-PCR) Analysis. Total RNA was isolated from confluent monolayers of cells using RNAZol B (Teltest Inc., Friendswood, Tex.). Five μg of total RNA was used as template and 0.15 μg of random hexanucleotide primers were added for reverse transcription and amplification in a reaction volume of 20 μl, according to the manufacturer's instruction (Invitrogen, Carlsbad, Calif.). After RT reaction, 3-5 μl of the 1st-strand cDNA was used for PCR with a PTC-100 programmable Thermal Controller (MJ Research Inc.). The oligonucleotide primer sets used for PCR analysis of cDNA are: hOC, 5′-[…]-3′ (forward) and 5′-[…]-3′ (reverse); hBSP, 5′-[…]-3′ (forward) and 5′-[…]-3′ (reverse); and glyceraldehyde phosphate dehydrogenase (GAPDH), 5′-[…]-3′ (forward) and 5′-[…]-3′ (reverse), respectively. The thermal profile for hOC amplification is 30 cycles starting with denaturation 1 min at 94° C., followed by 1 min of annealing at 55° C. and 1 min of extension at 72° C. For hBSP amplification the thermal profile is 35 cycles starting with denaturation 1 min at 94° C., followed by 30 s of annealing at 48° C. and 40 s of extension at 72° C. The program for GAPDH amplification is 25 cycles starting with denaturation 30 s at 94° C., followed by 30 s of annealing at 60° C. and 1 min of extension at 72° C. The RT-PCR products were analyzed by 1.2% agarose gel electrophoresis. Quantity one-4.1.1 Gel Doc gel documentation software (Bio-Rad) or NIH image were used for quantification of hOC and hBSP mRNA expression normalized by GAPDH mRNA expression.
# BSP mRNA = experiment: Semi-quantitative RT-PCR of endogenous BSP mRNA; assay type: cell-based, human; settings: FSK 10^−6 M, 12 h
# Protocol: as §4
# C4-2B cells = experiment: Adhesion assay on ECM-coated 96-well plates; assay type: cell-based, human; settings: β2M siRNA vs scramble siRNA
# Source text: FIG. 13. Adhesion assay of b2M-siRNA and scramble-siRNA infected C4-2B cells using 96-well plate pre-coated with Col I, LM, FN and Col IV. BSA was used as control (Con). *, p<0.05, **, p<0.005.
# Cell attachment to BSA coated wells served as an internal control (Con).
# hBSP promoter = experiment: hBSP promoter-luciferase reporter activity in transfected cells; assay type: cell-based, human; settings: C4-2B cells; db cAMP 10^−6 to 10^−3 M, FSK 10^−8 to 10^−5 M; 16 h; concentration-dependent
# Source text: Plasmid Construction. Genomic DNA was used in the PCR of the 0.8-kb hOC promoter inserting KpnI and XhoI sites, subsequently cloned into pGL3-Basic-luciferase reporter vector (Promega, Madison, Wis.) as described before (9). The deletion constructs, ΔA [374 bp upstream of AP1/VDRE (AV) element], ΔTst-1 (POU-factor Tst-1/Oct-6 binding site), ΔCRE (cAMP-responsive element) and ΔIRF-1 (interferon regulatory factor-i binding site) in hOC promoter/pGL3 were generated by recombinant PCR technique. The point mutation plasmids in CRE (from -643 to -636 in hOC promoter, 5′-[…]-3′) were constructed with a QuikChange Site-Directed Mutagenesis Kit (Stratagene). […]
# Transfection and Luciferase Activity Assay. […] For luciferase activity assay, 20 μl of the lysate supernatant was mixed with 100 μl of the luciferase substrate (Promega) and detected by a luminometer (Monolight 3010, luminometer PharMingen, San Diego, Calif.). For β-galactosidase activity assay, 100 μl of the supernatant was mixed with 100 μl of 2×β-galactosidase substrate [200 mM sodium phosphate buffer, pH 7.3, 2 mM MgCl2, 100 mM β-mercaptoethanol and 1.33 mg/ml o-nitrophenyl-β-D-galactopyranoside (ONPG)], and incubated at 37° C. for 30 min. β-galactosidase activity was detected by Microplate spectrophotometer (Molecular Devices Corp., Sunnyvale, Calif.) at 405 nm wavelength. […]
compound,measurement,setting,value
"CCCCCCCCCCCCCC(=O)O[C@@H]1[C@@H](C)[C@@]2(O)[C@@H](C=C(CO)C[C@]3(O)C(=O)C(C)=C[C@@H]23)[C@@H]2C(C)(C)[C@]12OC(C)=O [PMA, phorbol 12-myristate 13-acetate]","hOC promoter activity, induction by PKC pathway activator",hOC promoter; PMA 10^−6 M,induced hOC promoter activity to a lesser extent
"5′-UUCAUGUGUCUGUGGUGUU(dT)(dT)-3′ (siRNA; RNA, 3' dTdT, backbone not given here; scramble control, delivered in cationic liposome formulation SN) [scramble-siRNA]",cell proliferation,[1],did not affect
same,b2M expression,b2M,did not affect
same,"growth of pre-established PC3-Luc tumors, Luc-imaging (BLI)",PC3-Luc tumor,not
same,"growth of pre-established C4-2-Luc tumors, serum PSA",C4-2-Luc tumor,not
same,AR protein expression,AR,not
same,PSA protein expression,PSA,not
"C=C[C@@]1(C)CC(=O)[C@]2(O)[C@@]3(C)[C@@H](O)CCC(C)(C)[C@@H]3[C@H](O)[C@H](OC(C)=O)[C@@]2(C)O1 [FSK, forskolin]","steady-state level of OC mRNA, fold elevation",OC mRNA; C4-2B cells,7.8 fold
same,"steady-state level of OC mRNA, fold elevation",OC mRNA; LNCaP cells,5.2 fold
same,"level of BSP mRNA, fold increase",BSP mRNA; C4-2B cells,5.4 fold
same,"level of BSP mRNA, fold increase",BSP mRNA; LNCaP cells,3.2 fold
"5′-UUGCUAUGUGUCUGGGUUU(dT)(dT)-3′ (siRNA; RNA, 3' dTdT, backbone not given here; delivered in cationic liposome formulation SN) [b2M-siRNA]",cell proliferation,[1],inhibited
same,growth of prostate cancer cells in vitro and tumor growth in bone on blocking β2M signaling,[1]; preliminary investigations,greatly attenuated
same,b2M expression,b2M,inhibited
same,cell attachment to collagen I (Col I),C4-2B cells,no significant difference
same,cell attachment to collagen IV (Col IV),C4-2B cells,decreased attachment
same,cell attachment to fibronectin (FN),C4-2B cells,no significant difference
same,cell attachment to laminin (LM),C4-2B cells,no significant difference
same,AR protein expression,AR,abolished
same,PSA protein expression,PSA,abolished
"CCCC(=O)Nc1ncnc2c1ncn2[C@@H]1O[C@@H]2COP(=O)(O)O[C@H]2[C@H]1OC(=O)CCC [db cAMP, dibutyryl 3′,5′-cyclic AMP]","hOC promoter activity, effect of PKA pathway activators","hOC promoter; db cAMP 10^−6 to 10^−3 M, FSK 10^−8 to 10^−5 M, concentration-dependent",stimulated
same,"hBSP promoter activity, effect of PKA pathway activators",hBSP promoter,stimulated
